According to US20120029187A1, “HALOALKYLSULFONANILIDE DERIVATIVE” (Nissan Chemical Industries, Ltd., priority 2009, published 2012):

Legend:
Format in all cases: in vivo
[1] = system: barnyardgrass; test: Test Example 3: herbicidal effects in soil treatment; conditions: dose 3.2 g/a
Excerpt: (§1) Test on the Herbicidal Effects in Soil Treatment
(§2) Sterilized diluvial soil was put in plastic boxes with a length of 21 cm, a width of 13 cm and a depth of 7 cm, and seeds of barnyardgrass, large crabgrass, giant foxtail, wild oat, blackgrass, velvetleaf, common ragweed, redroot pigweed, common lambsquater, posumbu knotweed, common chickweed corn, soybean, rice, wheat and sugar beet were sown in spots and covered with an about 1.5 cm-thick soil layer. Emulsifiable concentrates containing compounds of the present invention formulated in accordance with Formulation Example 2 were uniformly applied to the soil surfaces at predetermined doses through a small sprayer after dilute with water. Three weeks after the application, the herbicidal effects against various plants were determined on the same evaluation scale as in Test Example 1.
(§3) A: barnyardgrass, B: bulrush, C: ducksalad, D: large crabgrass, E: giant foxtail, F: wild oat, G: water foxtail, H: Italian ryegrass, I: velvetleaf, J: common ragweed, K: redroot pigweed, L: common lambsquater, M: posumbu knotweed, N: common chickweed, O: beadstraw, a: transplanted rice, b: corn, c: soybean, d: direct-seeded rice, e: wheat, f: sugar beet.
(§4) The doses (g/a) represents the amounts in g per 1 are (a) applied after adjustment of concentration adjustment.

[2] = system: velvetleaf; test: as above; conditions: dose 3.2 g/a
Excerpt: as §1, §2, §3, §4

[3] = system: redroot pigweed; test: as above; conditions: dose 3.2 g/a
Excerpt: as §1, §2, §3, §4

[4] = system: common lambsquater; test: as above; conditions: dose 3.2 g/a
Excerpt: as §1, §2, §3, §4

[5] = system: large crabgrass; test: as above; conditions: dose 3.2 g/a
Excerpt: as §1, §2, §3, §4

[6] = system: giant foxtail; test: as above; conditions: dose 3.2 g/a
Excerpt: as §1, §2, §3, §4

[7] = system: Italian ryegrass; test: as above; conditions: dose 3.2 g/a
Excerpt: as §1, §2, §3, §4

[8] = system: common chickweed; test: as above; conditions: dose 3.2 g/a
Excerpt: as §1, §2, §3, §4

[9] = system: water foxtail; test: as above; conditions: dose 3.2 g/a
Excerpt: as §1, §2, §3, §4

[10] = system: common ragweed; test: as above; conditions: dose 3.2 g/a
Excerpt: as §1, §2, §3, §4

[11] = system: transplanted rice; test: Test Example 1: preemergence treatment under submerged conditions, effect on crop; conditions: dose 2.52 g/a
Excerpt: (§5) Test on the Herbicidal Effects in Preemergence Treatment on Weeds Under Submerged Conditions
(§6) Alluvial soil was put in 1/30000-are styrol cups and admixed with water so that it was submerged at a depth of 4 cm. In each cup, seeds of barnyardgrass, bulrush and ducksalad were sown together, and rice seedlings at the 2.5-leaf stage were transplanted. On the same day as the seeding, emulsifiable concentrates containing compounds of the present invention formulated in accordance with Formulation Example 2 were applied to the water surfaces at predetermined doses after diluted with water. The cups were placed in a greenhouse at 25 to 30° C. to grow the plants. Three weeks after the application, the herbicidal effects against various plants were determined on the following evaluation scale.
(§7) 5 mortality of 90% or above (nearly complete death)
(§8) 4 mortality of at least 70% and less than 90%
(§9) 3 mortality of at least 40% and less than 70%
(§10) 2 mortality of at least 20% and less than 40%
(§11) 1 mortality of at least 5% and less than 20%
(§12) 0 mortality of less than 5% (almost ineffective)
as §3, §4

[12] = system: ducksalad; test: Test Example 1: herbicidal effects in preemergence treatment under submerged conditions; conditions: dose 2.52 g/a
Excerpt: as §5, §6, §7, §8, §9, §10, §11, §12, §3, §4

[13] = system: bulrush; test: as above; conditions: dose 2.52 g/a
Excerpt: as §5, §6, §7, §8, §9, §10, §11, §12, §3, §4

[14] = system: barnyardgrass; test: as above; conditions: dose 2.52 g/a
Excerpt: as §5, §6, §7, §8, §9, §10, §11, §12, §3, §4

[15] = system: barnyardgrass; test: Test Example 4: herbicidal effect in foliage treatment; conditions: dose 3.2 g/a, three weeks after application
Excerpt: (§13) Test on the Herbicidal Effect in Foliage Treatment
as §2, with “chickweed,” for “chickweed”, “The boxes were placed in a greenhouse at 25 to 30° C. to grow the plants. After 14 days, emulsifiable” for “Emulsifiable”, “foliage” for “soil surfaces”, “diluted” for “dilute”
as §3, §4

[16] = system: velvetleaf; test: as above; conditions: dose 3.2 g/a, three weeks after application
Excerpt: as §13
as §2, with “chickweed,” for “chickweed”, “The boxes were placed in a greenhouse at 25 to 30° C. to grow the plants. After 14 days, emulsifiable” for “Emulsifiable”, “foliage” for “soil surfaces”, “diluted” for “dilute”
as §3, §4

[17] = system: redroot pigweed; test: as above; conditions: dose 3.2 g/a, three weeks after application
Excerpt: as §13
as §2, with “chickweed,” for “chickweed”, “The boxes were placed in a greenhouse at 25 to 30° C. to grow the plants. After 14 days, emulsifiable” for “Emulsifiable”, “foliage” for “soil surfaces”, “diluted” for “dilute”
as §3, §4

[18] = system: common lambsquater; test: as above; conditions: dose 3.2 g/a, three weeks after application
Excerpt: as §13
as §2, with “chickweed,” for “chickweed”, “The boxes were placed in a greenhouse at 25 to 30° C. to grow the plants. After 14 days, emulsifiable” for “Emulsifiable”, “foliage” for “soil surfaces”, “diluted” for “dilute”
as §3, §4

[19] = system: beadstraw; test: as above; conditions: dose 3.2 g/a, three weeks after application
Excerpt: as §13
as §2, with “chickweed,” for “chickweed”, “The boxes were placed in a greenhouse at 25 to 30° C. to grow the plants. After 14 days, emulsifiable” for “Emulsifiable”, “foliage” for “soil surfaces”, “diluted” for “dilute”
as §3, §4

[20] = system: large crabgrass; test: as above; conditions: dose 3.2 g/a, three weeks after application
Excerpt: as §13
as §2, with “chickweed,” for “chickweed”, “The boxes were placed in a greenhouse at 25 to 30° C. to grow the plants. After 14 days, emulsifiable” for “Emulsifiable”, “foliage” for “soil surfaces”, “diluted” for “dilute”
as §3, §4

[21] = system: giant foxtail; test: as above; conditions: dose 3.2 g/a, three weeks after application
Excerpt: as §13
as §2, with “chickweed,” for “chickweed”, “The boxes were placed in a greenhouse at 25 to 30° C. to grow the plants. After 14 days, emulsifiable” for “Emulsifiable”, “foliage” for “soil surfaces”, “diluted” for “dilute”
as §3, §4

[22] = system: Italian ryegrass; test: as above; conditions: dose 3.2 g/a, three weeks after application
Excerpt: as §13
as §2, with “chickweed,” for “chickweed”, “The boxes were placed in a greenhouse at 25 to 30° C. to grow the plants. After 14 days, emulsifiable” for “Emulsifiable”, “foliage” for “soil surfaces”, “diluted” for “dilute”
as §3, §4

[23] = system: posumbu knotweed; test: as above; conditions: dose 3.2 g/a, three weeks after application
Excerpt: as §13
as §2, with “chickweed,” for “chickweed”, “The boxes were placed in a greenhouse at 25 to 30° C. to grow the plants. After 14 days, emulsifiable” for “Emulsifiable”, “foliage” for “soil surfaces”, “diluted” for “dilute”
as §3, §4

[24] = system: common chickweed; test: as above; conditions: dose 3.2 g/a, three weeks after application
Excerpt: as §13
as §2, with “chickweed,” for “chickweed”, “The boxes were placed in a greenhouse at 25 to 30° C. to grow the plants. After 14 days, emulsifiable” for “Emulsifiable”, “foliage” for “soil surfaces”, “diluted” for “dilute”
as §3, §4

[25] = system: water foxtail; test: as above; conditions: dose 3.2 g/a, three weeks after application
Excerpt: as §13
as §2, with “chickweed,” for “chickweed”, “The boxes were placed in a greenhouse at 25 to 30° C. to grow the plants. After 14 days, emulsifiable” for “Emulsifiable”, “foliage” for “soil surfaces”, “diluted” for “dilute”
as §3, §4

[26] = system: common ragweed; test: as above; conditions: dose 3.2 g/a, three weeks after application
Excerpt: as §13
as §2, with “chickweed,” for “chickweed”, “The boxes were placed in a greenhouse at 25 to 30° C. to grow the plants. After 14 days, emulsifiable” for “Emulsifiable”, “foliage” for “soil surfaces”, “diluted” for “dilute”
as §3, §4

[27] = system: ducksalad; test: Test Example 2: herbicidal effects during the vegetation period under submerged conditions; conditions: treatment during the vegetation period under submerged conditions; dose 2.52 g/a
Protocol: (§14) Test on the Herbicidal Effects on Weeds During the Vegetation Period Under Submerged Conditions
(§15) Alluvial soil was put in 1/30000-are styrol cups and admixed with water so that it was submerged at a depth of 4 cm. In each cup, seeds of barnyardgrass, bulrush and ducksalad were sown together, and the cups were placed in a greenhouse at 25 to 30° C. to grow the plants. When the barnyardgrass, bulrush and ducksalad reached the 1- or 2-leaf stage, emulsifiable concentrates containing compounds of the present invention formulated in accordance with Formulation Example 2 were applied to the water surfaces at predetermined doses after diluted with water. Three weeks after the application, the herbicidal effects against various plants were determined on the same evaluation scale as in Test Example 1.
as §3, §4

[28] = system: bulrush; test: as above; conditions: treatment during the vegetation period under submerged conditions; dose 2.52 g/a
Protocol: as §14, §15, §3, §4

[29] = system: barnyardgrass; test: as above; conditions: treatment during the vegetation period under submerged conditions; dose 2.52 g/a
Protocol: as §14, §15, §3, §4

CCOC(=O)N(c1ccccc1CN1COC2(CCCC2)CC1=O)S(=O)(=O)C(F)(F)F [II-66]
A: barnyardgrass, herbicidal effect (evaluation scale 0-5) [1]: 5 (mortality of 90% or above (nearly complete death))
I: velvetleaf, herbicidal effect (evaluation scale 0-5) [2]: 4 (mortality of at least 70% and less than 90%)
K: redroot pigweed, herbicidal effect (evaluation scale 0-5) [3]: 2 (mortality of at least 20% and less than 40%)
L: common lambsquater, herbicidal effect (evaluation scale 0-5) [4]: 0 (mortality of less than 5% (almost ineffective))
D: large crabgrass, herbicidal effect (evaluation scale 0-5) [5]: 5 (mortality of 90% or above (nearly complete death))
E: giant foxtail, herbicidal effect (evaluation scale 0-5) [6]: 5 (mortality of 90% or above (nearly complete death))
H: Italian ryegrass, herbicidal effect (evaluation scale 0-5) [7]: 5 (mortality of 90% or above (nearly complete death))
N: common chickweed, herbicidal effect (evaluation scale 0-5) [8]: 5 (mortality of 90% or above (nearly complete death))
G: water foxtail, herbicidal effect (evaluation scale 0-5) [9]: 5 (mortality of 90% or above (nearly complete death))
J: common ragweed, herbicidal effect (evaluation scale 0-5) [10]: 3 (mortality of at least 40% and less than 70%)
a: transplanted rice, effect on crop (evaluation scale 0-5) [11]: 0 (mortality of less than 5% (almost ineffective))
C: ducksalad, herbicidal effect (evaluation scale 0-5) [12]: 5 (mortality of 90% or above (nearly complete death))
B: bulrush, herbicidal effect (evaluation scale 0-5) [13]: 5 (mortality of 90% or above (nearly complete death))
A: barnyardgrass, herbicidal effect (evaluation scale 0-5) [14]: 5 (mortality of 90% or above (nearly complete death))
A: barnyardgrass, herbicidal effect [15]: 5 (mortality of 90% or above (nearly complete death))
I: velvetleaf, herbicidal effect [16]: 3 (mortality of at least 40% and less than 70%)
K: redroot pigweed, herbicidal effect [17]: 0 (mortality of less than 5% (almost ineffective))
L: common lambsquater, herbicidal effect [18]: 3 (mortality of at least 40% and less than 70%)
O: beadstraw, herbicidal effect [19]: 0 (mortality of less than 5% (almost ineffective))
D: large crabgrass, herbicidal effect [20]: 3 (mortality of at least 40% and less than 70%)
E: giant foxtail, herbicidal effect [21]: 4 (mortality of at least 70% and less than 90%)
H: Italian ryegrass, herbicidal effect [22]: 3 (mortality of at least 40% and less than 70%)
M: posumbu knotweed, herbicidal effect [23]: 4 (mortality of at least 70% and less than 90%)
N: common chickweed, herbicidal effect [24]: 4 (mortality of at least 70% and less than 90%)
G: water foxtail, herbicidal effect [25]: 5 (mortality of 90% or above (nearly complete death))
J: common ragweed, herbicidal effect [26]: 3 (mortality of at least 40% and less than 70%)
C: ducksalad, herbicidal effect (evaluation scale 0-5) [27]: 5 (mortality of 90% or above (nearly complete death))
B: bulrush, herbicidal effect (evaluation scale 0-5) [28]: 5 (mortality of 90% or above (nearly complete death))
A: barnyardgrass, herbicidal effect (evaluation scale 0-5) [29]: 5 (mortality of 90% or above (nearly complete death))
